Data reported in PubChem BioAssay (NCI).
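Step 1: Grow cells in 96-well plates. Step 2: Expose to compound for 48 hours at 5 concentrations. Step 3: Interpolate endpoints linearly; if unreached, use highest concentration. The concentration for full growth arrest is given as TGI.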

Key:
Experiment in all cases: NCI-60 cell line screen, 48 h
[1] = system: EKVX NSCLC
[2] = system: HOP-62 NSCLC
[3] = system: HCT-116 colon
[4] = system: IGROV1 ovarian
[5] = system: COLO 205 colon
[6] = system: SF-268 CNS
[7] = system: DLD-1 colon
[8] = system: RXF 393 renal
[9] = system: LOX IMVI melanoma
[10] = system: NCI-H23 lung
[11] = system: M19-MEL melanoma
[12] = system: UACC-62 melanoma
[13] = system: UO-31 renal
[14] = system: SNB-78 CNS
[15] = system: M14 melanoma
[16] = system: MOLT-4 leukemia
[17] = system: TK-10 renal
[18] = system: K-562 leukemia
[19] = system: NCI-H226 lung
[20] = system: NCI-H460 lung
[21] = system: U251 CNS
[22] = system: ACHN renal
[23] = system: UACC-257 melanoma
[24] = system: SK-MEL-2 melanoma
[25] = system: A549 NSCLC
[26] = system: SF-295 CNS
[27] = system: CCRF-CEM leukemia
[28] = system: MALME-3M melanoma
[29] = system: OVCAR-5 ovarian
[30] = system: SK-MEL-5 melanoma
[31] = system: NCI-H522 lung
[32] = system: SNB-19 CNS
[33] = system: SK-OV-3 ovarian
[34] = system: HT29 colon
[35] = system: SR leukemia
[36] = system: RPMI-8226 leukemia
[37] = system: SW-620 colon
[38] = system: LXFL 529 NSCLC
[39] = system: SF-539 CNS
[40] = system: HCC-2998 colon
[41] = system: OVCAR-3 ovarian
[42] = system: SN12C renal
[43] = system: HCT-15 colon
[44] = system: HL-60(TB) leukemia
[45] = system: KM20L2 colon
[46] = system: 786-0 renal
[47] = system: CAKI-1 renal
[48] = system: OVCAR-8 ovarian
[49] = system: SK-MEL-28 melanoma
[50] = system: SNB-75 CNS
[51] = system: DMS 273 small cell lung
[52] = system: BT-549 breast
[53] = system: KM12 colon
[54] = system: MDA-MB-231 breast
[55] = system: DU-145 prostate
[56] = system: PC-3 prostate
[57] = system: A498 renal
[58] = system: MDA-N
[59] = system: MDA-MB-435
[60] = system: HS 578T breast
[61] = system: MCF7 breast
[62] = system: OVCAR-4 ovarian
[63] = system: T-47D breast
[64] = system: HOP-92 NSCLC
[65] = system: NCI/ADR-RES ovarian
[66] = system: DMS 114 small cell lung
[67] = system: HOP-18 NSCLC

Measured: TGI

CC(C(=O)n1nnc2ccccc21)N(c1ccccc1)c1ccccc1 (configuration not stated)
> 100 µM: [1] | [2] | [3] | [4] | [5] | [6] | [7] | [8] | [9] | [10] | [11] | [12] | [13] | [14] | [15] | [16] | [17] | [18] | [19] | [20] | [21] | [22] | [23] | [24] | [25] | [26] | [27] | [28] | [29] | [30] | [31] | [32] | [33] | [34] | [35] | [36] | [37] | [38] | [39] | [40] | [41] | [42] | [43] | [44] | [45] | [46] | [47] | [48] | [49] | [50] | [51]

Cc1ccc2c(c1)Sc1ccc(N=NN(C)C)cc1N2C
> 100 µM: [1] | [2] | [3] | [4] | [5] | [6] | [8] | [9] | [52] | [10] | [53] | [54] | [12] | [13] | [55] | [15] | [56] | [16] | [17] | [57] | [19] | [20] | [21] | [22] | [24] | [25] | [58] | [26] | [27] | [59] | [28] | [29] | [60] | [61] | [62] | [30] | [31] | [32] | [33] | [34] | [35] | [36] | [37] | [64] | [65] | [40] | [41] | [42] | [43] | [44] | [46] | [47] | [48] | [49] | [50]
85.9 µM: [63]

Cc1cc2c(Br)cc(Br)c(O)c2nc1C(=O)c1ccccc1
> 45.5 µM: [43]
32.2 µM: [11]
97 µM: [39]
28.6 µM: [46]
> 72.8 µM: [3]
55.7 µM: [5]
78.5 µM: [54]
> 68.5 µM: [29]
51.1 µM: [10]
96.3 µM: [58]
> 76.9 µM: [28]
70.4 µM: [67]
52.1 µM: [18]
> 71.3 µM: [21]
80.6 µM: [38]
> 100 µM: [1] | [4] | [6] | [7] | [52] | [53] | [55] | [14] | [56] | [16] | [17] | [57] | [22] | [25] | [27] | [59] | [60] | [61] | [62] | [31] | [32] | [35] | [36] | [37] | [65] | [42] | [47] | [48] | [49] | [50]
> 79.2 µM: [19]
> 83.6 µM: [8]
29.8 µM: [30]
97.2 µM: [24]
82.5 µM: [45]
> 65.7 µM: [23]
> 68.2 µM: [40]
42.3 µM: [51]
> 79.1 µM: [34]
97.7 µM: [66]
8.11 µM: [44]
> 31.6 µM: [2]
> 82.1 µM: [13]
> 60.2 µM: [15]
30.7 µM: [20]
> 79 µM: [41]
15.3 µM: [12]
74.6 µM: [63]
> 56.4 µM: [26]
> 86 µM: [9]
